Counter-ions that a name gives are not always drawn. Like-named read-outs stand apart in the source and are kept apart here.
What was measured:
[1] = Non-hygroscopic test: water content by Karl Fischer after storage at 40° C., 75% or 10% relative humidity; type: physicochemical; conditions: for water-content: 40° C.
Method: Crystalline sibutramine methanesulfonate hemihydrate of formula (I), sibutramine hydrochloride monohydrate (IV) and anhydrous sibutramine methanesulfonate were each exposed to a high temperature/humidity condition of 40° C. and 75% relative humidity for 1, 2, and 5 days, and the water content thereof was measured by employing Kaal-Fisher moisture analyzer.
A similar series of experiments were conducted at 40° C. and 10% relative humidity, in order to examine whether the respective compounds are stable under a relatively dry condition.

[2] = Exposure of anhydrous enantiomer salts to room temperature, 75% relative humidity; type: physicochemical
Text: Further, anhydrous (+)- and (−)-sibutramine methanesulfonate were each placed for 1 day at room temperature under 75% relative humidity.

[3] = background statement on the prior art; cited from earlier work
[4] = Solubility in water at pH 5.2 (saturation, HPLC); type: physicochemical; conditions: for solubility: pH 5.2, thermodynamic from solid, pH5.2, saturation, HPLC, based on water-free sibutramine
Text: Sibutramine methanesulfonate hemihydrate of formula (I) and sibutramine hydrochloride monohydrate were each dissolved to the saturation point at pH 5.2, and then subjected to high performance liquid chromatography (HPLC) to determine the dissolved amount (based on water-free of sibutramine).

[5] = Stability on long term storage at 60° C. (residual rate); type: physicochemical
Method: The thermal stability of crystalline methanesulfonate hemihydrate of formula (I) during a long term storage was compared with that of the sibutramine hydrochloride monohydrate of formula (IV). The amounts of unchanged crystalline methanesulfonate hemihydrate of formula (I) and sibutramine hydrochloride monohydrate of formula (IV) at 60° C. after 1, 2, 3 and 6 months are shown in Table 3.

[6] = system: overweight Zuker rats (fa/fa); test: Weight loss effect, 21 days, high-fat food; type: in vivo, rat; conditions: 3 mg/kg everyday for 21 days
Method: (§1) 16 each of overweight Zuker rats (fa/fa) and thin Zuker rats (Fa/Fa) were divided into drug-administrating and control groups (8 rats per group), and the weight of each rat was measured prior to the test. A 3 mg/kg dose of crystalline sibutramine methanesulfonate hemihydrate was administrated to each rat of the drug-administrating groups, whiling the vehicle was administrated to those of the control groups, everyday for 21 days. During the period, rats were allowed free access to high-fat food, and the average weights of the drug-administrating and control groups were determined in order to calculate the weight gain and loss.

[7] = system: thin Zuker rats (Fa/Fa); test: Weight loss effect, 21 days, high-fat food; type: in vivo, rat; conditions: 3 mg/kg everyday for 21 days
Method: as §1

[8] = pH 5.2; Merck Index, 13th Ed, p1522; cited from earlier work
[9] = 10% relative humidity, storage 1 day
[10] = 10% relative humidity, storage 2 days
[11] = 10% relative humidity, storage 5 days
[12] = 75% relative humidity, storage 1 day
[13] = 75% relative humidity, storage 2 days
[14] = 75% relative humidity, storage 5 days

CC(C)CC(N(C)C)C1(c2ccc(Cl)cc2)CCC1.CS(=O)(=O)O (stereo not shown) [anhydrous sibutramine methanesulfonate]
water-content [1, 9]: 0.60 % by weight | water-content [1, 10]: 0.71 % by weight | water-content [1, 11]: 0.70 % by weight | water-content [1, 12]: 0.60 % by weight | water-content [1, 13]: 2.20 % by weight | water-content [1, 14]: 2.25 % by weight

CC(C)CC(N(C)C)C1(c2ccc(Cl)cc2)CCC1.CS(=O)(=O)O (single isomer, unassigned; (-)) [(−)-sibutramine methanesulfonate]
state after 1 day [2]: transparent liquid

CC(C)CC(N(C)C)C1(c2ccc(Cl)cc2)CCC1.Cl (stereo not shown) [anhydrous sibutramine hydrochloride]
hygroscopicity [3]: highly hygroscopic

CC(C)CC(N(C)C)C1(c2ccc(Cl)cc2)CCC1 (racemic) [sibutramine methanesulfonate hemihydrate]
solubility in water compared with sibutramine hydrochloride monohydrate of formula (IV) ([4]; pH 5.2): markedly higher solubility in water | solubility [4]: 2500 mg/mL | Residual rate after 1 month [5]: 1.001 | Residual rate after 2 months [5]: 0.999 | Residual rate after 3 months [5]: 0.999 | Residual rate after 6 months [5]: 1.000 | Initial (unchanged amount) [5]: 1.000 | stability compared with sibutramine hydrochloride monohydrate ([5]; up to 6 months): as stable as sibutramine hydrochloride monohydrate | water-content [1, 9]: 2.27 % by weight | water-content [1, 10]: 2.25 % by weight | water-content [1, 11]: 2.26 % by weight | water-content [1, 12]: 2.27 % by weight | water-content [1, 13]: 2.30 % by weight | water-content [1, 14]: 2.30 % by weight | release of the water of crystallization ([1]; dry condition (40° C., 10% RH)): does not release the water of crystallization | hygroscopicity ([1]; high humidity condition (40° C., 75% RH)): non-hygroscopic | weight loss effect as compared with the control group ([6]; Zuker rats, sentence covers overweight and thin rats): remarkable weight loss effect | The average weight after test (B) ([6]; overweight Zuker rats): 455.6 g | Weight gain (B − A) ([6]; overweight Zuker rats): 123.4 g | Weight loss effect ((Gain in weight of the control group) − (Gain in weight of the drug-administrating group)) ([6]; overweight Zuker rats): 29.6 g | The average weight after test (B) [7]: 303.4 g | Weight gain (B − A) [7]: 58.4 g | Weight loss effect ((Gain in weight of the control group) − (Gain in weight of the drug-administrating group)) [7]: 20.4 g

CC(C)CC(N(C)C)C1(c2ccc(Cl)cc2)CCC1.CS(=O)(=O)O (single isomer, unassigned; (+)) [(+)-sibutramine methanesulfonate]
state after 1 day [2]: transparent liquid

CC(C)CC(N(C)C)C1(c2ccc(Cl)cc2)CCC1 (stereo not shown) [sibutramine hydrochloride monohydrate, reference compound]
solubility [4]: 2.8 mg/mL | Residual rate after 1 month [5]: 1.000 | Residual rate after 2 months [5]: 0.999 | Residual rate after 3 months [5]: 0.999 | Residual rate after 6 months [5]: 0.992 | Initial (unchanged amount) [5]: 1.000 | water-content [1, 9]: 5.40 % by weight | water-content [1, 10]: 5.36 % by weight | water-content [1, 11]: 5.36 % by weight | water-content [1, 12]: 5.40 % by weight | water-content [1, 13]: 5.45 % by weight | water-content [1, 14]: 5.48 % by weight | hygroscopicity [3]: non-hygroscopic | solubility in water [8]: 2.9 mg/mL
